± gives the standard deviation of the averaged measurements.
Tested on: HepaRG
Experiment: LDH release cytotoxicity, % of total lysis control; higher = more cytotoxic
Details: 48 h
How it was run: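 Eight-point half-log series of test chemicals, the highest at 100 µM, were given in duplicate for 48 h to single-lot HepaRG cells on collagen I-coated 96-well plates in serum-free induction medium with 0.5% DMSO. A Tecan Safire read resorufin fluorescence from CytoTox-ONE as a measure of LDH in 50 µL spent medium, with 0.1% Triton X in total lysis wells. Percent cytotoxicity was normalized to on-plate vehicle and total lysis controls and averaged over the duplicates.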

Nc1ccc([N+](=O)[O-])cc1 [4-Nitroaniline]
Details | LDH release cytotoxicity [%]
0.03162 µM | -1.77 ± 1.4
0.1 µM | -2.08 ± 0.69
0.3162278 µM | -1.811 ± 0.018
1 µM | -1.58 ± 0.75
3.16228 µM | -1.84 ± 0.43
10 µM | -0.905 ± 0.22
31.6228 µM | 0.842 ± 1.3
100 µM | -0.219 ± 0.45

O=C(O)c1ccc([N+](=O)[O-])cc1 [4-Nitrobenzoic acid]
Details | LDH release cytotoxicity [%]
0.03162 µM | -2.11 ± 0.46
0.1 µM | -1.22 ± 0.03
0.3162278 µM | -0.728 ± 0.58
1 µM | -0.721 ± 1.3
3.16228 µM | -1.62 ± 0.43
10 µM | -0.906 ± 0.7
31.6228 µM | -0.392 ± 0.1
100 µM | 1.32 ± 1.1

O=[N+]([O-])c1ccc(O)cc1 [4-Nitrophenol]
Details | LDH release cytotoxicity [%]
0.03162 µM | -0.152 ± 0.3
0.1 µM | -1.48 ± 0.38
0.3162278 µM | -1.18 ± 0.11
1 µM | -1.8 ± 1.2
3.16228 µM | -0.936 ± 0.28
10 µM | -1.26 ± 0.099
31.6228 µM | -0.409 ± 0.81
100 µM | -0.082 ± 0.47

Cc1ccc([N+](=O)[O-])cc1 [4-Nitrotoluene]
Details | LDH release cytotoxicity [%]
0.03162 µM | -0.445 ± 0.2
0.1 µM | -1.19 ± 1.1
0.3162278 µM | -0.0775 ± 0.88
1 µM | -0.642 ± 0.3
3.16228 µM | -0.56 ± 0.64
10 µM | -0.236 ± 0.032
31.6228 µM | -0.713 ± 0.035
100 µM | 1.62 ± 0.18

CC(C)CCCCCCc1ccc(O)cc1 [4-Nonylphenol, branched]
Details | LDH release cytotoxicity [%]
0.03162 µM | -2.12 ± 0.23
0.1 µM | -1.46 ± 0.5
0.3162278 µM | -1.72 ± 0.52
1 µM | -1.24 ± 0.36
3.16228 µM | -1.58 ± 0.073
10 µM | -1.23 ± 0.036
31.6228 µM | -0.532 ± 0.65
100 µM | -0.17 ± 1

CCCCCCCCCc1ccc(O)cc1 [4-Nonylphenol]
Details | LDH release cytotoxicity [%]
0.03162 µM | -1.27 ± 0.19
0.1 µM | -0.659 ± 0.11
0.3162278 µM | -1.49 ± 0.82
1 µM | -1.65 ± 0.14
3.16228 µM | -0.715 ± 0.039
10 µM | 0.445 ± 1.6
31.6228 µM | -0.17 ± 0.57
100 µM | 1.51 ± 1.1

CCCCCc1ccc(N)cc1 [4-Pentylaniline]
Details | LDH release cytotoxicity [%]
0.03162 µM | -0.0179 ± 1.1
0.1 µM | -1.43 ± 0.21
0.3162278 µM | -0.689 ± 0.038
1 µM | -0.976 ± 0.26
3.16228 µM | -0.886 ± 0.18
10 µM | -0.634 ± 0.16
31.6228 µM | -0.209 ± 0.75
100 µM | 1.34 ± 0.21

C1CC2OC2CC1C1CO1 (configuration not stated) [4-Vinyl-1-cyclohexene dioxide]
Details | LDH release cytotoxicity [%]
0.03162 µM | -0.357 ± 0.0064
0.1 µM | -1.96 ± 0.94
0.3162278 µM | -2.19 ± 0.42
1 µM | -1.67 ± 0.053
3.16228 µM | -1.29 ± 0.3
10 µM | -1.43 ± 0.099
31.6228 µM | -0.613 ± 1.2
100 µM | 78.1 ± 2.9

CC1(C)NC(=O)NC1=O [5,5-Dimethylhydantoin]
Details | LDH release cytotoxicity [%]
0.03162 µM | -2.18 ± 0.37
0.1 µM | -2.28 ± 1
0.3162278 µM | -2.14 ± 0.96
1 µM | -3.5 ± 0.27
3.16228 µM | -1.38 ± 0.42
10 µM | -1.82 ± 0.26
31.6228 µM | -1.07 ± 0.056
100 µM | 1.93 ± 1.1

O=C1NC(=O)C(c2ccccc2)(c2ccccc2)N1 [5,5-Diphenylhydantoin]
Details | LDH release cytotoxicity [%]
0.01581 µM | -5.31 ± 1.9
0.05 µM | -5.08 ± 1.3
0.1581139 µM | -5.88 ± 1
0.5 µM | -6.19 ± 1.8
1.5811388 µM | -4.95 ± 1.6
5 µM | 40.5 ± 6.5
15.8114 µM | 50.1 ± 6.8
50 µM | 44.7 ± 3.1

O=C(O)c1cc(Oc2ccc(C(F)(F)F)cc2Cl)ccc1[N+](=O)[O-] [5-(2-Chloro-4-(trifluoromethyl)phenoxy)-2-nitrobenzoic acid]
Details | LDH release cytotoxicity [%]
0.03162 µM | -0.08 ± 0.59
0.1 µM | -1.4 ± 0.2
0.3162278 µM | -0.769 ± 0.18
1 µM | -1.39 ± 0.35
3.16228 µM | -0.738 ± 0.35
10 µM | -0.0876 ± 0.044
31.6228 µM | 0.334 ± 0.06
100 µM | 2.95 ± 0.47

Cc1ccc(N)cc1O [5-Amino-2-methylphenol]
Details | LDH release cytotoxicity [%]
0.03162 µM | -0.861 ± 0.26
0.1 µM | -1.2 ± 1.2
0.3162278 µM | -0.469 ± 1.2
1 µM | -1.04 ± 0.78
3.16228 µM | -0.613 ± 0.33
10 µM | -0.636 ± 0.094
31.6228 µM | -0.124 ± 0.049
100 µM | 0.121 ± 0.6

Cn1sc(Cl)cc1=O [5-Chloro-2-methyl-3(2H)-isothiazolone]
Details | LDH release cytotoxicity [%]
0.03162 µM | -0.707 ± 0.6
0.1 µM | -1.2 ± 0.15
0.3162278 µM | -0.511 ± 0.28
1 µM | -1.23 ± 0.16
3.16228 µM | -0.949 ± 0.12
10 µM | -0.788 ± 0.64
31.6228 µM | -1.56 ± 0.12
100 µM | -1.76 ± 0.26

O=C(Nc1ccc([N+](=O)[O-])cc1Cl)c1cc(Cl)ccc1O [5-Chloro-N-(2-chloro-4-nitrophenyl)-2-hydroxybenzamide]
Details | LDH release cytotoxicity [%]
0.03162 µM | 1.65 ± 0.17
0.1 µM | -0.562 ± 0.35
0.3162278 µM | -0.79 ± 0.51
1 µM | -0.00174 ± 0.41
3.16228 µM | 0.224 ± 0.77
10 µM | 1.07 ± 0.19
31.6228 µM | 1.7 ± 0.41
100 µM | 4.52 ± 0.71

O=C1N=CC(F)C(=O)N1 (configuration not stated) [5-Fluorouracil]
Details | LDH release cytotoxicity [%]
0.03162 µM | -1.55 ± 0.12
0.1 µM | -3.9 ± 2.7
0.3162278 µM | -0.836 ± 0.12
1 µM | -1.84 ± 0.21
3.16228 µM | -1.66 ± 0.052
10 µM | -1.56 ± 0.38
31.6228 µM | -1.98 ± 0.46
100 µM | 8.44 ± 1.2

COc1ccc([N+](=O)[O-])cc1N [5-Nitro-o-anisidine]
Details | LDH release cytotoxicity [%]
0.03162 µM | 0.0404 ± 0.33
0.1 µM | -1.94 ± 0.095
0.3162278 µM | -1.36 ± 0.15
1 µM | -1.28 ± 0.27
3.16228 µM | -1.4 ± 0.22
10 µM | -1.25 ± 0.021
31.6228 µM | 0.0123 ± 0.15
100 µM | 0.941 ± 0.76

Cc1ccc([N+](=O)[O-])cc1N [5-Nitro-o-toluidine]
Details | LDH release cytotoxicity [%]
0.03162 µM | -0.782 ± 1
0.1 µM | -1.02 ± 0.28
0.3162278 µM | -1.84 ± 0.91
1 µM | -1.647 ± 0.013
3.16228 µM | -1.55 ± 0.25
10 µM | -1.24 ± 0.39
31.6228 µM | -0.792 ± 0.78
100 µM | -0.343 ± 0.81

CC12CCC3C(CCC4CC(=O)CCC43C)C1CCC2O (stereo not drawn) [5alpha-Dihydrotestosterone]
Details | LDH release cytotoxicity [%]
0.0322552 µM | -1.49 ± 0.51
0.102 µM | -1.05 ± 0.64
0.322552 µM | -1.02 ± 0.95
1.02 µM | -0.777 ± 0.65
3.2255232 µM | -0.0601 ± 0.54
10.2 µM | 0.259 ± 0.88
32.2552 µM | 2.27 ± 0.7
102 µM | 7.51 ± 0.71

CC1=NC(=S)NC(=O)C1 [6-Methyl-2-thiouracil]
Details | LDH release cytotoxicity [%]
0.03162 µM | -1.61 ± 0.11
0.1 µM | -0.548 ± 0.32
0.3162278 µM | 0.567 ± 0.55
1 µM | 0.268 ± 0.56
3.16228 µM | 0.0334 ± 0.84
10 µM | 0.892 ± 0.68
31.6228 µM | 0.733 ± 1.8
100 µM | 0.731 ± 1.2

Reference: the supplement of paper PMC7840683
